Test results from a melting point compilation (Tetko et al.).

Work on `Cc1nn(C)c(C)c1C(C)C(=O)O` (configuration not stated) yielded a melting point of 119 to 121 °C. Work on `CCOC(=O)c1c(-c2ccccc2)csc1NC(=O)C(C)Cl` (configuration not stated) yielded a melting point of 250 to 252 °C. `Cc1cn2c(CO)c(C)nc2s1` showed a melting point of 149 to 151 °C. In the case of `C1CNc2nn[nH]c2C1`, the melting point is reported as 163 to 165 °C. Work on `O=C(O)c1cnn(-c2cccc(Cl)c2)c1` yielded a melting point of 204 to 206 °C. In the case of `N#Cc1ccc(Oc2cccc(N)c2)nc1`, the melting point is reported as 112 to 114 °C. `Cc1cc(N)n(-c2ccc(OC(F)(F)F)cc2)n1` gave a melting point of 118 to 120 °C. `COc1ccc([N+](=O)[O-])cc1NC(=O)CCCl` gave a melting point of 159 to 161 °C. In the case of `COC(=O)c1c(C)n(C2CC2)c2ccc(O)cc12`, the melting point is reported as 193 to 195 °C. With `Clc1nc(CSc2ccccc2)nc2sc3c(c12)CCCC3` the melting point was 55 to 57 °C. In the case of `Nc1cccc(N2CCCS2(=O)=O)c1`, the melting point is reported as 85 to 87 °C. `O=[N+]([O-])c1cc(Cl)cc(Cl)c1S(=O)(=O)Cl` showed a melting point of 218 to 221 °C. `Brc1ccc2c(c1)c1cc(Br)ccc1n2CC1CO1` (configuration not stated) gave a melting point of 142 to 144 °C. In the case of `Sc1ccc(-c2ccccc2)cc1`, the melting point is reported as 106 to 108 °C. Compound `COc1ccc(-c2csc(CN)c2)cc1` has a melting point of 124 to 126 °C. With `Fc1ccc(-c2cnc(S)o2)cc1` the melting point was 252 to 254 °C. In the case of `CC(C)(C)NS(=O)(=O)c1ccccc1CN`, the melting point is reported as 131 to 133 °C. With `Cn1c(C(=O)O)cc2cc(C(F)(F)F)ccc21` the melting point was 199 to 201 °C. In the case of `O=C(O)c1occc1CS(=O)(=O)c1ccc(Br)cc1`, the melting point is reported as 211 to 213 °C. For `COc1cc(C#N)ccc1OCC1CCCO1` (configuration not stated), the melting point was 86 to 88 °C. In the case of `O=C(CCl)NCc1ccc(C(=O)N2CCCC2)cc1`, the melting point is reported as 128 to 130 °C. In the case of `Nc1cc(-c2ccco2)no1`, the melting point is reported as 95 to 99 °C. With `COc1ccc(-c2ccc(C(=O)O)c(F)c2)cc1` the melting point was 201 to 203 °C. With `CCN(CC)c1ccc(S(N)(=O)=O)cc1NC(=O)CCl` the melting point was 135 to 137 °C. Work on `CC(Cl)C(=O)c1ccc2c(c1)NC(=O)CO2` (configuration not stated) yielded a melting point of 186 to 188 °C. For `NC1=NS(=O)(=O)c2ccccc21`, the melting point was 279 to 281 °C. With `CC(C)(C)OC(=O)N1CCC2(CC1)CC2C(=O)NN` (configuration not stated) the melting point was 132 to 134 °C. Compound `NC(=O)c1cccc(Cl)n1` has a melting point of 124 to 126 °C. In the case of `COc1cc(C=O)cc2c1OCO2`, the melting point is reported as 130 to 134 °C. Work on `BrCc1ccc2c(c1)COC2` yielded a melting point of 49 to 51 °C. Work on `CS(=O)(=O)c1ccccc1CC(=O)O` yielded a melting point of 154 to 156 °C. In the case of `O=C(CCl)Nc1cc(Cl)ccc1F`, the melting point is reported as 98 to 102 °C. For `CNS(=O)(=O)c1ccc(C(C)N)cc1` (configuration not stated), the melting point was 104 to 106 °C. Compound `CC(N)=NO` has a melting point of 118 to 120 °C. For `O=C(O)c1cccc(OCC(F)(F)F)n1`, the melting point was 138 to 140 °C. Compound `OC1CCN(c2cncc(Cl)n2)C1` (configuration not stated) has a melting point of 80 to 82 °C. With `CN(C)C(=O)CN1C(=O)C(=O)c2cc(Br)ccc21` the melting point was 194 to 196 °C. For `Cc1cc(=O)[nH]c(-c2ccc(N)cc2)n1`, the melting point was 222 to 224 °C. Compound `O=C(O)CNC(=O)c1cccc([N+](=O)[O-])c1` has a melting point of 90 to 92 °C. Compound `O=C(O)CCc1cc(Br)ccc1F` has a melting point of 84 to 86 °C. In the case of `CCc1cc(C(=O)O)n[nH]1`, the melting point is reported as 191 to 193 °C. `CN(c1ccc(O)cc1)S(=O)(=O)c1ccc(Cl)cc1` gave a melting point of 154 to 156 °C. `Clc1cc(CBr)c2ncccc2c1` gave a melting point of 116 to 118 °C. `O=C(O)c1cccnc1Nc1ccccc1F` showed a melting point of 215 to 217 °C. Work on `Cc1ccc(-c2ccsc2C(=O)O)cc1` yielded a melting point of 134 to 136 °C. In the case of `Nc1cccc(C(=O)NCC(F)(F)F)c1`, the melting point is reported as 118 to 120 °C. With `Cc1cc(C=O)c(C)n1CCN1CCOCC1` the melting point was 79 to 81 °C. Work on `O=S(=O)(c1cccc(C(F)(F)F)c1)N1CCNCC1` yielded a melting point of 100 to 110 °C. `CCOc1ccc(N)cc1CN1CCCC1` showed a melting point of 58 to 60 °C. In the case of `CC(C)(C#N)C(=O)O`, the melting point is reported as 54 to 56 °C. In the case of `CC(C(=O)O)c1ccc(Br)cc1` (configuration not stated), the melting point is reported as 54 to 56 °C. With `COc1cc(CCc2cc(N)n[nH]2)cc(OC)c1` the melting point was 107 to 109 °C. For `Cn1nnnc1SCC(=O)O`, the melting point was 108 to 110 °C. `O=C(O)C1CCCc2[nH]ncc21` (configuration not stated) showed a melting point of 176 to 178 °C. Compound `O=C1NCCc2c(Br)cccc21` has a melting point of 109 to 111 °C. `COc1ccc(NS(=O)(=O)c2ccc(N3CCCC3)c(N)c2)cc1` showed a melting point of 40 to 42 °C. `O=c1[nH]c2cc(F)ccc2c(=O)o1` showed a melting point of 240 to 242 °C. Compound `Brc1ccn2nccc2n1` has a melting point of 131 to 133 °C. `Cc1nccn1-c1cc(C#N)ccn1` showed a melting point of 194 to 196 °C. Compound `CCc1nc2ccccc2n1CC(=O)O` has a melting point of 232 to 234 °C. `O=C(Nc1nncs1)OCC(F)(F)F` showed a melting point of 213 to 215 °C. Work on `CC(C)(C)OC(=O)NC(CC(=O)O)C1CC1` (configuration not stated) yielded a melting point of 111 to 113 °C. In the case of `Cn1c(CC#N)nc2ccccc21`, the melting point is reported as 129 to 131 °C. `O=C(O)CNC(=O)CC1CCCCC1` gave a melting point of 116 to 118 °C. With `Cc1ccc(S(=O)(=O)Nc2cc(Cl)ccc2O)cc1` the melting point was 189 to 191 °C. In the case of `Cc1ccc(S(=O)(=O)N(C)Cc2ccc(C(=O)NN)cc2)cc1`, the melting point is reported as 66 to 68 °C. For `COc1ccc(-c2cnnc(N)n2)cc1`, the melting point was 246 to 248 °C. With `CCOC(=O)c1cnc2nccn2c1` the melting point was 168 to 170 °C. `Clc1ccc(-c2ccccc2)nn1` gave a melting point of 157 to 159 °C. For `O=[N+]([O-])c1ccc2oc(CCl)nc2c1`, the melting point was 115 to 117 °C. Compound `O=C(Cn1ccnc1)c1ccc(F)cc1` has a melting point of 150 to 152 °C. For `Nn1c(S)nnc1-c1ccco1`, the melting point was 207 to 209 °C. Compound `CNc1ncnc2ccccc12` has a melting point of 179 to 181 °C. `Cc1ccc(C2CS(=O)(=O)CCN2)o1` (configuration not stated) gave a melting point of 111 to 113 °C. Work on `NC1=C(c2nc3ccccc3[nH]2)C(=O)CN1N` yielded a melting point of 296 to 300 °C. For `NS(=O)(=O)c1ccc(N2CCOCC2)c(C(=O)O)c1`, the melting point was 277 to 279 °C. Work on `Nc1ccc(OCC(F)(F)F)c(C(F)(F)F)c1` yielded a melting point of 48 to 50 °C. `NNc1cn[nH]c(=O)c1Cl` gave a melting point of 171 to 173 °C. Compound `CN1CCN(c2ncc(C=O)cn2)CC1` has a melting point of 90 to 92 °C. `CCOC(=O)C(NS(C)(=O)=O)C(=O)OCC` gave a melting point of 72 to 74 °C. Compound `COc1cc(OC)c(N)c(C(=O)O)c1` has a melting point of 189 to 191 °C. For `O=C(O)c1cc(/C=C/c2ccc(OC(F)(F)F)cc2)nc2ccc(Br)cc12`, the melting point was 311 to 313 °C. With `CC1Oc2ccccc2OC1C(=O)O` (configuration not stated) the melting point was 106 to 108 °C. In the case of `CCOc1c(Br)cc(C(=O)O)cc1OC`, the melting point is reported as 140 to 142 °C. For `CC(Cc1ccc(Cl)cc1)C(=O)O` (configuration not stated), the melting point was 49 to 51 °C. Compound `CCCNc1cc(F)ccc1[N+](=O)[O-]` has a melting point of 61 to 63 °C. `COc1ccccc1-c1nn(-c2ccccc2)cc1C(=O)O` showed a melting point of 195 to 197 °C. Work on `NNc1nccc(N2CCOCC2)n1` yielded a melting point of 146 to 148 °C. Compound `CCN(CC)S(=O)(=O)c1ccc(N2CCCCC2)c(C(=O)O)c1` has a melting point of 157 to 159 °C. Compound `Nc1ccc(N2CCNCC2)cn1` has a melting point of 162 to 164 °C. `O=c1[nH]c(-c2ccccn2)nc2c1CCC2` showed a melting point of 178 to 180 °C. Work on `CN(C)S(=O)(=O)c1cccc(C(=O)NCC(=O)O)c1` yielded a melting point of 172 to 176 °C. Work on `Nc1nc(SCCO)n[nH]1` yielded a melting point of 126 to 128 °C. `Cn1cnc(-c2ccc(N)cc2)n1` gave a melting point of 138 to 140 °C. For `O=C(O)CSCc1cscn1`, the melting point was 98 to 100 °C. Work on `CCOCCS(N)(=O)=O` yielded a melting point of 30 to 32 °C. `ON=C1CCCOc2ccc(Br)cc21` gave a melting point of 107 to 109 °C. With `CCOc1cc(C=CC(=O)O)ccc1OCCOc1ccccc1` the melting point was 187 to 189 °C. Compound `COc1cc(OC)c2c(-c3ccccc3)cc(S)nc2c1` has a melting point of 230 to 232 °C. With `Cc1ccc(NC(=O)CCl)c(Cl)c1` the melting point was 98 to 100 °C. Work on `CCNc1ccc(C(=O)O)cc1[N+](=O)[O-]` yielded a melting point of 239 to 241 °C. For `Oc1ccccc1-c1nc(CCl)no1`, the melting point was 76 to 78 °C.
